Laboratory results taken from paper PMC9395488, “First-in-human study of IM156, a novel potent biguanide oxidative phosphorylation (OXPHOS) inhibitor, in patients with advanced solid tumors” (Investigational New Drugs, 2022).
Entries after “also recorded” stand apart in the source; their conditions may differ.

How the values were obtained:
advanced solid tumors = assay: Preliminary efficacy (RECIST 1.1 / RANO response, PFS); type: in vivo, human
Excerpt: A preliminary evaluation of efficacy was based on serial CT or magnetic resonance imaging (MRI). Response criteria were as defined by RECIST 1.1 or RANO. The following endpoints were to be assessed: overall response rate (ORR: complete response [CR] plus partial response [PR]), disease control rate (DCR: CR + PR + stable disease [SD]), DoR, and PFS.
The safety population was defined as all patients who received at least one dose of IM156. The PK population was not defined in the protocol but included all patients with sufficient PK data to perform adequate PK modeling. The efficacy population included all patients who underwent at least one tumor imaging assessment while receiving IM156. Safety was assessed using descriptive statistics (e.g., DLTs, AEs, laboratory tests, physical examination, 12-lead ECG). The incidence and number of events were reported for the DLTs observed in Cycle 1 per dose group. […] Two-sided 95% Confidence Intervals (CIs) were also provided. Adverse events and TRAEs were standardized with the System Organ Class and the Preferred Term using the Medical Dictionary for Regulatory Activities v23.0. In addition, TEAEs, serious adverse events (SAEs), TEAE severity, and TEAEs leading to withdrawal were presented by dose group. Efficacy data were to be presented by Waterfall and Swim Lane plots. Time to event endpoints (e.g., DoR, PFS) were determined using Kaplan–Meier estimations with the median value for each endpoint summarized.

OXPHOS [1] = assay: OXPHOS inhibition in whole blood ex vivo; type: cell-based; conditions: at ~ 6 μM IM156
Method: The maximum plasma exposure achieved in this study was ~ 6 μM in patients who received IM156 at daily doses of 800 mg. […] As such, measurements of target inhibition were not informative using PBMCs-based assays.

protein complex 1 = system: protein complex 1; design: method as in ImmunoMet, 2018; conditions: study protocol background; ref ImmunoMet, 2018; cited from earlier work
Hs746T GC xenograft = system: Hs746T GC xenograft; design: method as in ImmunoMet, 2018; conditions: Hs746T GC xenograft in mice, each compound alone; IM156 10 or 30 mg/kg, Irinotecan 50 or 75 mg/kg; ref ImmunoMet, 2018; cited from earlier work
[2] = system: miR-17~92 overexpression Eµ-MYC lymphoma; design: method as in ImmunoMet, 2018; conditions: nude mice, IM156 in drinking water 0.8 mg/mL, vs control line or regular drinking water; ref ImmunoMet, 2018; cited from earlier work
glioblastoma (GSC11) = system: glioblastoma (GSC11); design: method as in ImmunoMet, 2018; conditions: glioblastoma animal model, control group 47 days; ref ImmunoMet, 2018; cited from earlier work
Glioblastoma cells = system: Glioblastoma cells; design: method as in ImmunoMet, 2018; conditions: 15 µM IM156, 500 µM temozolomide, ref ImmunoMet, 2018; cited from earlier work
tumor cells = system: tumor cells; design: method as in Immunomet – Data on File; conditions: at equal concentrations, ref Immunomet – Data on File, cited from earlier work
OXPHOS [3] = system: OXPHOS; design: method as in ImmunoMet, 2018; conditions: at the highest concentrations; ref ImmunoMet, 2018; cited from earlier work
[4] = presence and absence of activated S9; ref ImmunoMet, 2018; cited from earlier work
[5] = Plasma pharmacokinetics of IM156 in patients
Method: PK samples were also obtained on Cycle 1 Day 15 immediately prior to dosing and 2 h after dosing.
③ Method and schedule for administration:
IM156 will be administered in a fasted state (at least 2 hours after
and 1 hour before eating and drinking except water) except at
the single dose stage (described below).
In the single dose stage, IM156 will be administered with a high-
fast of at least 10 hours, subjects should eat a high-fat meal in
20 minutes starting 30 minutes prior to administration of IM156
with 240 mL of water. No food will be eaten for at least 4 hours
after the administration of IM156. Water is allowed as desired
except for one hour before and after the administration of IM156.
Phase 1b: advanced solid tumor or lymphoma
IM156 will be administered at the RP2D and schedule determined during
Phase 1a. The population(s) and dose and schedule of IM156 will be
defined in a protocol amendment.
Methodology This study is a Phase 1 clinical study to determine the MTD and RP2D of
IM156 as a single agent and to explore its safety, tolerability, PK
characteristics, exploratory markers, and preliminary efficacy.
The Phase 1 clinical study consists of two parts, Phase 1a and Phase 1b.
The Phase 1a is conducted to determine the MTD of IM156 as a single
agent. In addition, the safety, tolerability, preliminary efficacy, PK
characteristics, and exploratory markers of IM156 are evaluated in
patients with advanced solid tumors or lymphoma who have failed in the
standard therapies. Approximately 8 cohorts are planned in Phase 1a; the
number of cohorts and the dose and schedule of IM156 to be
administered at each dose levels will be determined by Safety Committee.
The Phase 1b is conducted to confirm the safety and tolerability, to
explore the preliminary efficacy, and to evaluate the exploratory markers
at the RP2D of IM156 in patients with advanced solid tumor or lymphoma.
Pharmacokinetic Evaluation
Pharmacokinetic evaluation on IM156 will be carried out at each dose level in all the patients
enrolled in the Phase 1a and Phase 1b study. Pharmacokinetic evaluation will be performed on
Day 1 and 15 (Day 15 is only for the Phase 1a study) of the first cycle (Cycle 1), and Day 1 of the
second cycle (Cycle 2). Day 1 Cycle 2 will be Day 29. On Day 1 of Cycles 1 and 2, patients may
be hospitalized in the ward where 24-hour monitoring is possible, and blood and urine will be
collected before and after IM156 adminstration for PK evaluation. The drug concentration will be
evaluated whenever analyses of patient samples are feasible during the clinical study. In PK
evaluation, area under the concentration-time curve (AUC) over the time interval from 0
extrapolated to infinity (AUCinf), AUC up to the last measurable concentration (AUC0–last),
maximum plasma drug concentration (Cmax), minimum plasma drug concentration (Cmin), time
taken to reach the maximum concentration (Tmax), terminal phase half life (T1/2), apparent total
clearance of the drug from plasma after oral administration (CL/F), accumulation ratio at steady
state, cumurative amount of unchanged drug excreted into the urine (Ae), renal clearance (CLr),
and so on will be determined and other PK parameters can be added, if necessary.

[6] = plasma, Cycle 1 Day 1, 100 mg oral, N = 3
[7] = plasma, Cycle 1 Day 1, 200 mg oral, N = 3
[8] = plasma, Cycle 1 Day 1, 400 mg oral, N = 3
[9] = plasma, Cycle 1 Day 1, 800 mg oral (both regimens combined), N = 6
[10] = plasma, Cycle 1 Day 1, 1200 mg oral (both regimens combined), N = 7
[11] = plasma, Day 27, cohort 1, 100 mg QOD, N = 2
[12] = plasma, Day 27, cohort 2, 200 mg QOD, N = 3
[13] = plasma, Day 27, cohort 3, 400 mg QOD, N = 3
[14] = plasma, Day 27, cohort 4, 800 mg QOD, N = 3
[15] = plasma, Day 27, cohort 5, 1200 mg QOD, N = 3
[16] = plasma, Day 27, cohort 6, 800 mg QD, N = 3
[17] = plasma, Day 27, cohort 7, 1200 mg QD, N = 2
[18] = plasma, Fed 1 (single dose with high-fat meal), 1200 mg oral, N = 3

**Q.** What does the source list for `NC(=Nc1ccc(OC(F)(F)F)cc1)N=C(N)N1CCCC1` [IM156]?
**A.** duration of prolonged SD / time on IM156 (advanced solid tumors; 1 patient with gastric adenocarcinoma): 169 days; duration of prolonged SD / time on IM156 (advanced solid tumors; 1 patient with gastric neuroendocrine carcinoma): 444 days; objective responses (CRs or PRs) (advanced solid tumors; 16 of 22 patients with response data): No objective responses; also recorded: No clinical responses; median PFS (advanced solid tumors; Kaplan–Meier): 54 days; median PFS, 95% CI (advanced solid tumors; Kaplan–Meier): 47 to 71 days; disease control rate (DCR) (advanced solid tumors; N = 22): 32%; patients with confirmed SD (advanced solid tumors; N = 22): 2 patients; patients with confirmed SD, percent (advanced solid tumors; N = 22): 9%; patients with stable disease (SD) as best response (advanced solid tumors; N = 22): 7 patients; patients with stable disease (SD) as best response, percent (advanced solid tumors; N = 22): 32%; inhibition of OXPHOS in whole blood ex vivo (OXPHOS [1]): very little inhibition; potency as protein complex 1 inhibitor relative to metformin (protein complex 1): ~ 100 times; reduction of tumor volume (Hs746T GC xenograft): ~ 70%; extension of overall animal survival [2]: approximately 50%; median survival time (glioblastoma (GSC11)): 82 days; neurosphere size (Glioblastoma cells): decreased; reduction of cellular ATP production versus phenformin (tumor cells; without increase in ECAR): more potent; decrease of oxygen consumption rate (OCR) of tumor cells compared to phenformin and metformin (tumor cells): more potent; time to show OXPHOS inhibition (OXPHOS [3]): ≤ 20 min; genotoxicity in two in vitro assays [4]: not genotoxic; accumulation of plasma exposure at steady-state ([5]; 800 mg QD, Day 27 vs Day 1): modest accumulation; maximum plasma exposure achieved ([5]; daily doses of 800 mg): ~ 6 μM; dose proportionality of plasma exposure (AUC0-24, Cmax) ([5]; doses ≥ 200 mg): increased dose proportionally; also recorded: increased in a dose proportional manner; also recorded: dose proportionality; AUC0-24 [5, 6]: 482 ± 342 ng·h/mL; Cmax [5, 6]: 38.7 ± 31.1 ng/mL; Tmax [5, 6]: 6.67 ± 2.31 h; AUC0-24 [5, 7]: 2980 ± 251 ng·h/mL; Cmax [5, 7]: 189 ± 41.0 ng/mL; Tmax [5, 7]: 4.67 ± 3.06 h; AUC0-24 [5, 8]: 4380 ± 3010 ng·h/mL; Cmax [5, 8]: 362 ± 131 ng/mL; Tmax [5, 8]: 3.33 ± 1.15 h; AUC0-24 [5, 9]: 7520 ± 3820 ng·h/mL; Cmax [5, 9]: 829 ± 260 ng/mL; Tmax [5, 9]: 2.25 ± 1.47 h; AUC0-24 [5, 10]: 14,100 ± 6970 h*ng/mL; Cmax [5, 10]: 1100 ± 616 ng/mL; Tmax [5, 10]: 5.00 ± 3.00 h; Plasma AUC0-24 ([5]; plasma, Day 1, cohort 4 only, 800 mg QOD): 7250 ± 3960 ng·h/mL; Plasma AUC0-24 ([5]; plasma, Day 1, cohort 5 only, 1200 mg QOD): 10600 ± 4820 ng·h/mL; Plasma AUC0-24 ([5]; plasma, Day 1, cohort 6 only, 800 mg QD): 7790 ± 4530 ng·h/mL; Plasma AUC0-24 ([5]; plasma, Day 1, cohort 7 only, 1200 mg QD): 16800 ± 7720 ng·h/mL; mean Tmax values, range over doses ([5]; plasma, Day 27): 1.2 to 4.0 h; AUC0-24 [5, 11]: 1070 ± 330 ng·h/mL; AUC0-48 [5, 11]: 1400 ± 383 ng·h/mL; AUCINF [5, 11]: 1620 ± 473 ng·h/mL; CL/F [5, 11]: 64.5 ± 18.8 L/h; Cmax [5, 11]: 109 ± 54.8 ng/mL; Tmax [5, 11]: 2.50 ± 2.12 h; Vz/F [5, 11]: 1580 ± 291 L; t1/2 [5, 11]: 17.3 ± 1.91 h; AUC0-24 [5, 12]: 4200 ± 1140 ng·h/mL; AUC0-48 [5, 12]: 6010 ± 1810 ng·h/mL; AUCINF [5, 12]: 6180 ± 2220 ng·h/mL; CL/F [5, 12]: 34.6 ± 12.4 L/h; Cmax [5, 12]: 272 ± 43.8 ng/mL; Tmax [5, 12]: 4.00 ± 0.00 h; Vz/F [5, 12]: 837 ± 266 L; t1/2 [5, 12]: 16.9 ± 0.752 h; AUC0-24 [5, 13]: 7630 ± 5410 ng·h/mL; AUC0-48 [5, 13]: 10,900 ± 8770 h*ng/mL; CL/F [5, 13]: 67.8 ± 28.3 L/h; Cmax [5, 13]: 530 ± 324 ng/mL; Tmax [5, 13]: 4.00 ± 0.00 h; Vz/F [5, 13]: 1160 ± 256 L; t1/2 [5, 13]: 12.4 ± 2.56 h; AUC0-24 [5, 14]: 12,900 ± 9470 h*ng/mL; AUC0-48 [5, 14]: 18,200 ± 14,700 h*ng/mL; AUCINF [5, 14]: 11,200 ± 5740 h*ng/mL; CL/F [5, 14]: 82.4 ± 42.3 L/h; Cmax [5, 14]: 949 ± 408 ng/mL; Tmax [5, 14]: 1.17 ± 0.764 h; Vz/F [5, 14]: 1650 ± 413 L; t1/2 [5, 14]: 14.9 ± 4.20 h; AUC0-24 [5, 15]: 21,800 ± 3680 h*ng/mL; AUC0-48 [5, 15]: 29,800 ± 4700 h*ng/mL; AUCINF [5, 15]: 33,100 ± 6120 h*ng/mL; CL/F [5, 15]: 36.9 ± 6.83 L/h; Cmax [5, 15]: 1580 ± 75.3 ng/mL; Tmax [5, 15]: 3.33 ± 1.15 h; Vz/F [5, 15]: 863 ± 312 L; t1/2 [5, 15]: 15.9 ± 2.90 h; AUC0-24 [5, 16]: 33,600 ± 9780 h*ng/mL; Cmax [5, 16]: 1870 ± 485 ng/mL; Tmax [5, 16]: 4.00 ± 0.00 h; AUC0-24 [5, 17]: 36,300 ± 7550 h*ng/mL; Cmax [5, 17]: 1980 ± 94.8 ng/mL; Tmax [5, 17]: 4.00 ± 0.00 h; AUC0-24 [5, 18]: 17,600 ± 12,800 h*ng/mL; Cmax [5, 18]: 1220 ± 910 ng/mL; Tmax [5, 18]: 6.83 ± 5.84 h; mean plasma half-life (t1/2) values, range ([5]; plasma, post dose administration): 12—17 h
